Earlier results as cited in patent US20230226068A1, “METHOD, SYSTEM, FORMULATION AND KIT FOR THE TREATMENT OF ONYCHOMYCOSIS” (priority 2021, published 2023).
Where two headings read alike, the source gives them in different places.

Details: for side effects: po

| Compound | safety profile (in vivo) | side effects (in vivo) | also measured |
| --- | --- | --- | --- |
| CCC(C)(C)c1ccc(CC(C)CN2C[C@@H](C)O[C@@H](C)C2)cc1 (stereo partly shown) [Amorolfine] | local skin irritations |  |  |
| Cc1cc(C2CCCCC2)n(O)c(=O)c1 [Ciclopirox] | local skin irritations |  |  |
| C=C1CCN([C@H](C)[C@](O)(Cn2cncn2)c2ccc(F)cc2F)CC1 [Efinaconazole] | local skin irritations |  |  |
| OC(Cn1cncn1)(Cn1cncn1)c1ccc(F)cc1F [Fluconazole] |  | liver enzyme abnormalities, headaches, as well as gastrointestinal problems or rashes |  |
| CCC(C)n1ncn(-c2ccc(N3CCN(c4ccc(OCC5COC(Cn6cncn6)(c6ccc(Cl)cc6Cl)O5)cc4)CC3)cc2)c1=O (stereo not shown) [Itraconazole] |  | liver enzyme abnormalities, headaches, as well as gastrointestinal problems or rashes |  |
| OB1OCc2cc(F)ccc21 [Tavaborole] |  |  | safety profile (topical treatment): local skin irritations |
| CN(C/C=C/C#CC(C)(C)C)Cc1cccc2ccccc12 [Terbinafine] |  | liver enzyme abnormalities, headaches, as well as gastrointestinal problems or rashes |  |
